Test results from patent US20030161893A1, “PTPase inhibitors and methods of using the same” (priority 2001, published 2003).

Key:
Tyk2/Stat3 = test: GM-CSF-induced Tyk2/Stat3 tyrosine phosphorylation in SHP-1-deficient cells; type: cell-based
Flag-PRL-2 = target: T1, Flag-PRL-2 (Homo sapiens, UniProt Q12974); test: Immunocomplex PTPase assay, Flag-PRL-2 NIH3T3 transfectants; type: cell-based
T1 construct: expressed in transfected cells
Experimental: (§1) Immunocomplex PTPase assays were performed to assess the effects of sodium stibogluconate on intracellular PTPases. Cells were untreated or treated with sodium stibogluconate for 5 minutes, washed with fresh medium and then lysed in cold lysis buffer (50 mM Tris, pH 7.4; 150 mM NaCl; 1% NP40; 2 mM PMSF; 20 ,g/ml of Aprotinin). The lysates were incubated with an anti-Flag antibody in immunoprecipitation assays. The immunocomplexes were collected with protein G sepharose beads (Pharmacia) and washed in cold lysis buffer for 4 times. […] 100 μL of malachite green solution (UBI) was added to each reaction prior to measurement of OD660 to quantify the amounts of free phosphate cleaved by the PTPases from the peptide substrate (Pathak et al., J. Imumol. 167, 3391 (2001)). The remaining 10% contents of individual samples were analyzed by SDS-PAGE/Western blotting to quantify the relative amounts of the phosphatase proteins. […]
(§2) The effects of sodium stibogluconate on intracellular PTPases were assessed using NIH3T3 or WM9 transfectants. […]

Flag-PRL-1 = target: T2, Flag-PRL-1 (Homo sapiens, UniProt Q93096); test: Immunocomplex PTPase assay, Flag-PRL-1 NIH3T3 transfectants; type: cell-based; conditions: cells treated 5 min
T2 construct: expressed in transfected cells
T2 sequence (Q93096 whole entry): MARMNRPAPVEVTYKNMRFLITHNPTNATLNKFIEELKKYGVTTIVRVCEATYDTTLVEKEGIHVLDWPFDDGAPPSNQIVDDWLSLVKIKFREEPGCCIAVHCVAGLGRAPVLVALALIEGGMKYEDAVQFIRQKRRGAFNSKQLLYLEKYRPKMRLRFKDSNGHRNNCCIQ
Experimental: as §1, §2

TF-1 cells = test: TF-1 cell proliferation assay; type: cell-based, human
Experimental: The murine hematopoietic cell line Baf3 was maintained in RPMI 1640 medium supplemented with 10% fetal calf serum (FCS) and murine IL-3 (20 units/ml) as described previously in Damen et al., J. Biol. Chem. 270, 23402 (1995). Human myeloid cell line TF-1 was maintained in RPMI 1640 supplemented with 10% FCS and 40 ng/ml of recombinant human GM-CSF as described previously in Thomassen et al., Clin. Immunol. 95, 85 (2000). For cell proliferation assays, cells were washed in 10% FCS medium twice, resuspended in 10% FCS medium, incubated at 37° C. for 16 hours, and then cultured at 37° C. in 10% FCS medium containing various amounts of cytokines, sodium stibogluconate, or potassium antimonyl tartrate for 3-6 days as indicated. The cell numbers in proliferation assays were determined by an MTT assay or by microscopic cell counting as indicated.

A549 cells = test: Cell growth assay (MTT), A549 lung cancer cells; type: cell-based, human; conditions: 100 μg/ml, day 6
Experimental: NIH3T3 (Yi, et al., Blood 85, 87 (1995)), WM9 (Forsberg, et al., Proc. Nat. Acad Sci. USA 90, 393 (1993)), DU145 (Mickey, et al., Cancer Res. 37, 4049 (1977)), LoVo (Drewinko, et al., Cancer Res. 36, 467 (1976)), HEY (Buick, et al., Cancer Res. 45, 3668 (1985)), U251 (Yoshida, et al., Cancer 50, 410 (1982)), A549 (Giard, et al., J. Natl. Cancer Inst. 51, 1417 (1973)) and SK-N-SH (Helson, et al., Cancer Res. 35, 2594 (1975)) cell lines have been described and were cultured in RPMI 1640 supplemented with 10% fetal calf serum (FCS). For measurement of sodium stibogluconate effects on cell growth in vitro, cells were cultured in the absence (−) or presence (+) of various amounts of sodium stibogluconate for 6 days with viable cells quantified by MTT assays (Mosmann, J. Imunol. Methods 65, 55 (1983)). Percentages of growth inhibition by sodium stibogluconate were calculated (+/−×%).

WM9 cells = test: Cell proliferation assay (MTT), WM9 melanoma cells; type: cell-based, human
Experimental: For cell proliferation assays, cells were grown in 10% FCS culture medium containing various amounts of IFNs and/or sodium stibogluconate in 96 well plates and cultured at 37° C. for 3 or 6 days as indicated. The numbers of viable cells in proliferation assays were determined by MTT assays as described in Phatak et al., J. Immunol. 167, 3391 (2001).
Dose response curves were generated for each drug alone, and also the combinations. Median effect plots were generated for IFNs alone, sodium stibogluconate alone, and the combination. The combination index (CI) was determined and plotted vs. fraction affected (FA). Data were analyzed in both modes, mutually exclusive and mutually nonexclusive. The interaction between two mutually nonexclusive drugs is described by the Equation CI=D1/D×1+D2/D×2+D1D2/D×1D×2, where D×1 and D×2 are the doses of drug 1 and drug 2 that are required to inhibit growth×%. […] When CI<1, drugs are synergistic, when CI=1, drugs are additive, and when CI>1, drugs are antagonistic.

T1 sequence (Q12974 whole entry): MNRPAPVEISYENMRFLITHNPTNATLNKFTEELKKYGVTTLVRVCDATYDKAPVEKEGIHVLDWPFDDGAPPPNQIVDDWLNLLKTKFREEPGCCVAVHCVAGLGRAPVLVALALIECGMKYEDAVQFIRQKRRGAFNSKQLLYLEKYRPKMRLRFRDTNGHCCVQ

For O.O.O.O.O.O.O.O.O.O=C([O-])[C@@H]1[O][Sb]2([O-])([O][Sb]34([OH])[O][C@H]([C@H](O)CO)[C@H]([O]3)[C@H](C(=O)[O-])[O]4)[O][C@H]([C@H](O)CO)[C@@H]1[O]2.[Na+].[Na+].[Na+] [sodium stibogluconate], the “GM-CSF-induced Tyk2/Stat3 tyrosine phosphorylation” value (Tyk2/Stat3) was “augmented”, the “time for full removal of effect on intracellular PRL-2 activity” value (Flag-PRL-2; brief treatment, NIH3T3 transfectants) was “at least 24 hours” and the “PTPase activity of anti-Flag immunocomplexes, Flag-PRL-2” value (Flag-PRL-2; cells treated 5 min) was “lack of PTPase activity”. For the same molecule, the “PTPase activity of anti-Flag immunocomplexes, Flag-PRL-1” value (Flag-PRL-1) was “little PTPase activities”, the “GM-CSF-induced proliferation of TF-1 cells” value (TF-1 cells; 50 μg/ml, GM-CSF 5-40 ng/ml) was “augmented” and the “growth inhibition activity of IFN-alpha in TF-1 cells in presence of drug” value (TF-1 cells; 50 μg/ml, with GM-CSF) was “enhanced”. The “effect of low doses on GM-CSF-induced TF-1 growth” value (TF-1 cells; 12.5-50 μg/ml) was “no negative effect on GM-CSF-induced cell growth”, the “cell killing, A549” value (A549 cells) was “near-complete cell killing” and the “killing of WM9 cells, single agent” value (WM9 cells; 50 μg/ml and 100 μg/ml, day 6 culture) was “killed all cells”. For the same molecule, the “IFN-alpha-induced growth inhibition of WM9 in presence of drug” value (WM9 cells; day 6) was “augmented” and the “IFN-alpha- and IFN-beta-induced growth inhibition of WM9 in presence of drug” value (WM9 cells; day 6, most dramatic at 12.5-50 μg/ml and IFNs 12.5-50 units/ml) was “greatly enhanced”.
